Test results published in patent US6676932B2, “Ultraviolet absorbent, photostabilizer, ultraviolet ray-absorbing composition, photostabilized composition and external preparation for skin” (Shiseido Co., Ltd., priority 2001, dated 2004).

What was measured:
Format in all cases: physicochemical
[1] = Dye stabilization effect under daylight exposure (Test Examples 6-91); parameters: key to Δ E: color difference ΔE in Lab vs. color before daylight exposure; key to Appearance (visual determination): ◯: no change; Δ: almost no change; x: change; conditions: photostabilizer 0.05 wt %, daylight exposure (80 MJ)
Description: For observation of the change of the appearance of each test sample (determination based on visual observation) and the measurement of color difference (ΔE) before and after daylight exposure (80 MJ), the test sample was prepared.
(§1) With a spectrophotometer, the color was measured on the Lab coordinate system, to calculate the color difference on the basis of the color before daylight exposure. More specifically, the color difference (ΔE) was calculated on the basis of the measured values (L1, a1, b1) before daylight exposure.

[2] = Stabilization effect on perfume under daylight exposure (Test Examples 92 to 181); parameters: key: ◯: no change; Δ: almost no change; x: change; conditions: daylight exposure (80 MJ)
Description: Each test sample was prepared for observation of the change of the odor of the test sample (determined by perfume coordinator) before and after daylight exposure (80 MJ).

[3] = Drug stabilization effect under daylight exposure (Test Examples 182 to 211); parameters: key to Appearance (visual determination): ◯: no change; Δ: almost no change; x: change; conditions: photostabilizer 0.05 wt %, daylight exposure (80 MJ); for Remaining ratio (%): liquid chromatography
Description: (§2) For observation of the change of the appearance of each test sample (determination based on visual observation) and the measurement of the remaining ratio by liquid chromatography before and after daylight exposure (80 MJ), the test sample was prepared.

[4] = Dye stabilization effect in blend with sequestering agents (Test Examples 212 to 275); conditions: daylight exposure (80 MJ)
Description: Each test sample was prepared for observation of the change of the appearance of each test sample (determined visually) and measurement of the color difference (ΔE) before and after daylight exposure (80 MJ).
as §1

[5] = Drug stabilization effect blended with sequestering agent (Test Examples 372 to 391); parameters: key to Appearance (visual determination): ◯: no change; Δ: almost no change; x: change; conditions: photostabilizer blend amount 0.03, daylight exposure (80 MJ)
Description: Then, the photostabilization effect of the pyridazine derivative in combination with sequestering agents on each drug and the change of the appearance of each composition were examined, by using the following formulation for assessment.
as §2

[6] = dye Blue 1 (Brilliant Blue FCF) 0.0001 wt %
[7] = dye Green 3 (Fast Green FCF) 0.001 wt %
[8] = dye Red 227 (Acid Fuchsine D) 0.0001 wt %
[9] = dye Yellow 5 (Sunset Yellow FCF) 0.001 wt %
[10] = dyes Yellow 203 (Quinoline Yellow WS) 0.0001 + Yellow 5 (Sunset Yellow FCF) 0.0001 wt %
[11] = natural perfume Nelori oil, photostabilizer 0.1 wt %
[12] = synthetic perfume Limonene oil, photostabilizer 0.05 wt %
[13] = drug L-ascorbic acid 2-glucoside 2.0 wt %
[14] = dyes Red 213 (Rhodamine B) 0.00001 + Blue 1 (Brilliant Blue FCF) 0.00001 wt %
[15] = dyes Red 227 (Acid Fuchsine D) 0.0001 + Yellow 5 (Sunset Yellow FCF) 0.0001 wt %
[16] = drug dl-α-tocopherol 2-L-ascorbic acid phosphate diester potassium salt 0.01 wt %
[17] = dyes Red 401 (Violanin R) 0.0001 + Blue 1 (Brilliant Blue FCF) 0.00001 wt %
[18] = drug dibutylhydroxytoluene 0.01 wt %

Compound: c1cc(N2CCOCC2)nnc1N1CCOCC1 [3,6-Dimorpholinopyridazine]
- Appearance (visual determination) [1, 6]: ◯
- Δ E [1, 6]: 1.25
- Appearance (visual determination) [1, 7]: ◯
- Δ E [1, 7]: 0.44
- Appearance (visual determination) [1, 8]: ◯
- Δ E [1, 8]: 0.53
- Appearance (visual determination) [1, 9]: ◯
- Δ E [1, 9]: 0.51
- Appearance (visual determination) [1, 10]: ◯
- Δ E [1, 10]: 0.40
- odor determination ([2]; base perfume Fruity, photostabilizer 0.1 wt %): ◯
- odor determination [2, 11]: ◯
- odor determination [2, 12]: ◯
- Appearance (visual determination) [3, 13]: ◯
- Remaining ratio (%) [3, 13]: 98.5%
- Δ E ([4]; dyes Red 213 (Rhodamine B) 0.00001 + Blue 1 (Brilliant Blue FCF) 0.00001, no sequestering agent, photostabilizer blend amount 0.02): 1.98
- Δ E ([4]; dyes Red 213 (Rhodamine B) 0.00001 + Blue 1 (Brilliant Blue FCF) 0.00001, with ethylenediaminehydroxyethyl trisodium triacetate 0.03, photostabilizer blend amount 0.02): 1.32
- Appearance (visual determination) ([5]; drug dibutylhydroxy toluene 0.01, no sequestering agent): Δ
- Appearance (visual determination) ([5]; drug dibutylhydroxy toluene 0.01, with sodium metaphosphate 0.03): ◯

Compound: Oc1cc(N2CCCCC2)cnn1 [3-Hydroxy-5-piperidinopyridazine, 3-hydroxy-5-piperidinopyridazine]
- Appearance (visual determination) [1, 6]: ◯
- Δ E [1, 6]: 1.28
- Appearance (visual determination) [1, 7]: ◯
- Δ E [1, 7]: 0.45
- Appearance (visual determination) [1, 8]: ◯
- Δ E [1, 8]: 0.52
- Appearance (visual determination) [1, 9]: ◯
- Δ E [1, 9]: 0.53
- Appearance (visual determination) [1, 14]: ◯
- Δ E [1, 14]: 1.01
- Appearance (visual determination) [1, 15]: ◯
- Δ E [1, 15]: 0.68
- odor determination ([2]; base perfume Rose, photostabilizer 0.05 wt %): ◯
- odor determination ([2]; base perfume Woody, photostabilizer 0.1 wt %): ◯
- odor determination ([2]; natural perfume Lavender oil, photostabilizer 0.1 wt %): ◯
- odor determination ([2]; natural perfume Rose oil, photostabilizer 0.05 wt %): ◯
- odor determination ([2]; synthetic perfume Citral, photostabilizer 0.1 wt %): ◯
- odor determination ([2]; synthetic perfume Linalyl acetate, photostabilizer 0.1 wt %): ◯
- Appearance (visual determination) [3, 16]: ◯
- Remaining ratio (%) [3, 16]: 98.7%
- Appearance (visual determination) ([3]; drug salicylic acid 0.1 wt %): ◯
- Remaining ratio (%) ([3]; drug salicylic acid 0.1 wt %): 98.5%
- Δ E ([4]; dye Blue 1 (Brilliant Blue FCF) 0.001, photostabilizer 0.02, no sequestering agent): 1.74
- Δ E ([4]; dye Blue 1 (Brilliant Blue FCF) 0.001, photostabilizer 0.02, with ethylenediaminehydroxyethyl trisodium triacetate 0.05): 0.54
- Δ E ([4]; dye Blue 1 (Brilliant Blue FCF) 0.001, photostabilizer 0.02, with ethylenediaminetetraacetate trisodium 0.05): 0.78
- Δ E ([4]; dye Blue 1 (Brilliant Blue FCF) 0.001, photostabilizer 0.02, with sodium metaphosphate 0.05): 0.88
- Δ E ([4]; dyes Red 106 (Acid Red) 0.00001 + Yellow 203 (Quinoline Yellow WS) 0.0001, no sequestering agent, photostabilizer blend amount 0.01): 1.08
- Δ E ([4]; dyes Red 106 (Acid Red) 0.00001 + Yellow 203 (Quinoline Yellow WS) 0.0001, with ethylenediaminehydroxyethyl trisodium triacetate 0.02, photostabilizer blend amount 0.01): 0.72
- Appearance (visual determination) ([5]; drug dl-α-tocopherol 2-L-ascorbic acid phosphate diester potassium salt 0.01, no sequestering agent): Δ
- Appearance (visual determination) ([5]; drug dl-α-tocopherol 2-L-ascorbic acid phosphate diester potassium salt 0.01, with ethylenediaminehydroxyethyl Triacetate trisodium 0.03): ◯

Compound: Oc1ccc(N2CCOCC2)nn1 [3-Hydroxy-6-morpholinopyridazine, 6-Morpholino-3-hydroxypyridazine]
- Appearance (visual determination) [1, 6]: ◯
- Δ E [1, 6]: 1.32
- Appearance (visual determination) [1, 7]: ◯
- Δ E [1, 7]: 0.43
- Appearance (visual determination) [1, 8]: ◯
- Δ E [1, 8]: 0.54
- Appearance (visual determination) [1, 9]: ◯
- Δ E [1, 9]: 0.53
- Appearance (visual determination) [1, 17]: ◯
- Δ E [1, 17]: 0.52
- Appearance (visual determination) [1, 10]: ◯
- Δ E [1, 10]: 0.44
- odor determination [2, 11]: ◯
- odor determination ([2]; natural perfume Ylang ylang oil, photostabilizer 0.2 wt %): ◯
- odor determination [2, 12]: ◯
- odor determination ([2]; synthetic perfume Linalool, photostabilizer 0.05 wt %): ◯
- Appearance (visual determination) [3, 18]: ◯
- Remaining ratio (%) [3, 18]: 98.0%
- Δ E ([4]; dye Green 3 (Fast Green FCF) 0.001, photostabilizer 0.02, no sequestering agent): 0.75
- Δ E ([4]; dye Green 3 (Fast Green FCF) 0.001, photostabilizer 0.02, with ethylenediaminetetraacetate trisodium 0.1): 0.32
- Δ E ([4]; dye Green 3 (Fast Green FCF) 0.001, photostabilizer 0.02, with sodium metaphosphate 0.1): 0.36
- Δ E ([4]; dye Green 3 (Fast Green FCF) 0.001, photostabilizer 0.02, with sodium polyphosphate 0.1): 0.52
- Δ E ([4]; dyes Red 106 (Acid Red) 0.00001 + Yellow 5 (Sunset Yellow FCF) 0.0001, no sequestering agent, photostabilizer blend amount 0.01): 1.38
- Δ E ([4]; dyes Red 106 (Acid Red) 0.00001 + Yellow 5 (Sunset Yellow FCF) 0.0001, with ethylenediaminetetraacetate trisodium 0.02, photostabilizer blend amount 0.01): 0.92
- Appearance (visual determination) ([5]; drug L-ascorbic acid 2-glucoside 2.0, no sequestering agent): ◯
- Appearance (visual determination) ([5]; drug L-ascorbic acid 2-glucoside 2.0, with sodium metaphosphate 0.03): ◯
